# “Also recorded” adds a separate entry of the source. Where two headings read alike, the source gives them in different places.
# Key:
# [1] = tested on: MCF-7 (estrogen receptor-positive breast cancer); assay: Antiproliferative SRB assay, MCF-7; assay type: cell-based; conditions: Homo sapiens, MCF7, SRB assay, 72 h, read-out: IC50 MCF-7
# Description: (§1) We tested the fourteen known aspidosperma-type alkaloids (1–14) against chemosensitive KB (originally isolated from epidermoid carcinoma of the nasopharynx) and P-gp over-expressing multidrug-resistant (MDR) KB subline KB-VIN, as well as three additional human cancer cell lines, A549 (lung carcinoma), MDA-MB-231 (triple negative breast cancer), and MCF-7 (estrogen receptor-positive breast cancer), using a sulforhodamine B (SRB) assay (Table 1).
# (§2) Antiproliferative activity was determined by the sulforhodamine B (SRB) colorimetric assay as previously described. In brief, human tumor cell lines were cultured in RPMI-1640 medium containing 2 mM l-glutamine and 25 mM HEPES (Gibco), supplemented with 10% fetal bovine serum (Speciality Media), 100 µg/mL streptomycin, 100 IU/mL penicillin, and 0.25 µg/mL amphotericin B (Corning). MDR stock cells (KB-VIN) were maintained in the presence of 100 nM vincristine (VIN) (Sigma-Aldrich, Saint Louis, MI, USA).
# (§3) Freshly trypsinized cell suspensions were seeded in 96-well microtiter plates at densities of 4000–11,000 cells per well (based on the cell lines) with compounds. After 72 h in culture with test compounds, cells were fixed in 10% trichloroacetic acid followed by staining with 0.04% sulforhodamine B (Sigma-Aldrich). The bound SRB was solubilized in 10 mM Tris-base and the absorbance at 515 nm was measured using a Microplate Reader (ELx800, Bio-Tek Instruments, Winooski, VT, USA) operated by Gen5 software (BioTek) after solubilizing the protein-bound dye with 10 mM Tris base. The mean IC50 is the concentration of agent that reduced cell growth by 50% compared with vehicle (DMSO) control under the experimental conditions and is the average from at least three independent experiments with duplicate samples.
# (§4) The following human tumor cell lines were used in the assay: A549 (lung carcinoma), MDA-MB-231 (triplen-egative breast cancer), KB (originally isolated from epidermoid carcinoma of the nasopharynx), KB-VIN (VIN-resistant KB subline showing MDR phenotype by overexpressing P-gp), MCF-7 (estrogen receptor (ER)-positive, HER2-negative breast cancer). […] All cell lines were obtained from the Lineberger Comprehensive Cancer Center (UNC-CH) or from ATCC (Manassas, VA), except KB-VIN, which was a generous gift from Professor Y.-C. Cheng (Yale University). Paclitaxel was purchased from Sigma-Aldrich.
# [2] = target: T1, tubulin (colchicine site) (Bos taurus, UniProt P81947+Q6B856); assay: Inhibition of [3H]colchicine binding to tubulin; design: species or system bovine; conditions: 5 μM [3H]colchicine, 1 μM tubulin, 5 μM test compound, 37 °C, 10 min, NA = not active; for inhibition at 5 µM: read-out: Tubulin Assay ICB: percent inhibition of [3H]colchicine binding
# T1 construct: electrophoretically homogeneous bovine brain tubulin; from tissue; host or cells: bovine brain
# T1 sequence (P81947 whole entry): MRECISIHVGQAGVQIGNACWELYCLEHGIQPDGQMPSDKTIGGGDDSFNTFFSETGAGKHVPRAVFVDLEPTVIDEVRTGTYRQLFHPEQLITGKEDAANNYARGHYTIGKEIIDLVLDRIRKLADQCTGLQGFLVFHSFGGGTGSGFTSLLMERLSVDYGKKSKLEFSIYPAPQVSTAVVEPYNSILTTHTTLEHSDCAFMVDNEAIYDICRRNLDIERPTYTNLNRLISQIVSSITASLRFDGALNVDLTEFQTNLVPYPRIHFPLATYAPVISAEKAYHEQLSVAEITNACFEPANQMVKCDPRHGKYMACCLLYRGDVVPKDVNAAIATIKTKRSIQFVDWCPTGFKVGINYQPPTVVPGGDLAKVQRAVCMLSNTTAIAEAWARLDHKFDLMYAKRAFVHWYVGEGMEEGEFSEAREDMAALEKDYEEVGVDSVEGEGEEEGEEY
# T1 sequence (Q6B856 whole entry): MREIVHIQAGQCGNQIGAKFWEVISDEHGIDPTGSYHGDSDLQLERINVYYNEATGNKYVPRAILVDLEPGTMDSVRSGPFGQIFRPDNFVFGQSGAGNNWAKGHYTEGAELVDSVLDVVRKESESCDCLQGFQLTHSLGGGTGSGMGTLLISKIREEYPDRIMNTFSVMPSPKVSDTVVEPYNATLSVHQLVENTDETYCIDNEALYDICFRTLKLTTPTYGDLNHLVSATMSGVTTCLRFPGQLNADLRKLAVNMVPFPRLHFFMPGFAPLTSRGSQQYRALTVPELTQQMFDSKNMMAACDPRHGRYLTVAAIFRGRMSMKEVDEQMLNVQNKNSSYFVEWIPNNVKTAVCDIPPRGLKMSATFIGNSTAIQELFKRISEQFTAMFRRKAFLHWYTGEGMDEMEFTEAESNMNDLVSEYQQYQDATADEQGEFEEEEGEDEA
# Description: The data for 6 and 7 indicate that both alkaloids bind to tubulin and inhibit its assembly, and these effects are closely related to their antiproliferative activities against tumor cells. Thus, we further investigated whether the inhibition of tubulin polymerization was the major action of these alkaloids.
# (§5) Inhibitory effects of compounds on tubulin assembly were evaluated using electrophoretically homogeneous bovine brain tubulin as described previously using 1.0 mg/mL (10 μM) tubulin. The turbidity development as tubulin assembly was initiated by adding 0.4 mM GTP and followed for 20 min at 30 °C following a rapid temperature jump. Compound concentrations as EC50 values that inhibited the increase in turbidity by 50% relative to a control sample were determined. In colchicine inhibition assays, tubulin (1.0 μM) was incubated with 5.0 μM [^3H] colchicine and 5.0 μM test compound at 37 °C for 10 min, when about 40–60% of maximum colchicine binding occurs in control samples.
# [3] = tested on: KB-VIN (VIN-resistant KB subline showing MDR phenotype by overexpressing P-gp); assay: Antiproliferative SRB assay, KB-VIN; conditions: Homo sapiens, KBVIN, 72 h, read-out: IC50 KB-VIN
# Description: as §1, §2, §3, §4
# [4] = tested on: KB (originally isolated from epidermoid carcinoma of the nasopharynx); assay: Antiproliferative SRB assay, KB; assay type: cell-based; conditions: Homo sapiens, SRB assay, 72 h, read-out: IC50 KB
# Description: as §1, §2, §3, §4
# A549 (lung carcinoma) = assay: Antiproliferative SRB assay, A549; assay type: cell-based; conditions: Homo sapiens, A549, SRB assay, 72 h, read-out: IC50 A549
# Description: as §1, §2, §3, §4
# [5] = tested on: MDA-MB-231 (triple negative breast cancer); assay: Antiproliferative SRB assay, MDA-MB-231; assay type: cell-based; conditions: Homo sapiens, MDA-MB-231, SRB assay, 72 h, read-out: IC50 MDA-MB-231
# Description: as §1, §2, §3, §4
# [6] = tested on: A549, MDA-MB-231, KB, KB-VIN, and MCF-7; assay: Antiproliferative SRB assay, values stated across several cell lines; assay type: cell-based, human; conditions: for antiproliferative activity (in words): five human tumor cell lines including MDR subline KB-VIN
# Description: as §1, §2, §3, §4
# bovine brain tubulin = target: T2, bovine brain tubulin (Bos taurus, UniProt P81947+Q6B856); assay: Inhibition of purified tubulin assembly (turbidity); assay type: biochemical; conditions: 10 μM tubulin, 0.4 mM GTP, 20 min at 30 °C; NA = not active (IC50 > 40 µM); read-out: Tubulin Assay ITA: inhibition of purified tubulin assembly, EC50
# T2 construct: electrophoretically homogeneous bovine brain tubulin; from tissue; host or cells: bovine brain
# T2 sequence (P81947 whole entry): as the sequence (P81947 whole entry) above
# T2 sequence (Q6B856 whole entry): as the sequence (Q6B856 whole entry) above
# Description: as §5
# KB-VIN cells [7] = assay: Immunofluorescence staining of α-tubulin, pH3 and DNA; assay type: cell-based, human; conditions: 24 h, 3 × IC50
# Description: (§6) Figure 2 Mitotic defects in KB-VIN cells treated by compounds. […] Cell cycle distributions (sub-G1, G1, S, G2/M) were analyzed using flow cytometry after staining cells with propidium iodide (PI). […] Fixed cells were stained with antibodies to α-tubulin (green) and phospho-histone H3 (pH3, red), and DAPI was used for DNA (blue). Stained cells were observed by confocal fluorescence microscope. The represented image is a projection of 15~20 optical sections acquired at 0.5~1 µm intervals. […] Bar, 0.025 mm. Additional images are available in Supplementary Figure S1.
# To determine whether the cell cycle arrest was due to an antimicrotubule effect, cells treated with compounds were analyzed by immunocytochemistry using antibodies to α-tubulin for microtubules and mitotic spindles, Ser10-phosphorylated histone H3 (pH3) for the condensed chromatins and 4′,6-diamidino-2-phenylindole (DAPI) for DNA. […] Thus, we concluded that these alkaloids are tubulin polymerization inhibitors.
# Immunocytochemical analysis was performed as previously described. […] After treatment of cells with the agent for 24 h, cells were fixed with 4% paraformaldehyde in PBS and permeabilized with 0.5% Triton X-100 in PBS. Fixed cells were labeled with mouse monoclonal antibody to α-tubulin (B5-1-2, Sigma) and rabbit IgG to Ser10-phosphorylated histone H3 (p-H3) (#06570, EMD Millipore), followed by FITC-conjugated antibody to mouse IgG (Sigma) and Alexa Fluor 549-conjugated antibody to rabbit IgG (Life Technologies). Nuclei were labeled with DAPI (Sigma). Fluorescently-labeled cells were observed using a confocal microscope (Zeiss, LSM700) with ZEN (black edition) software (Zeiss). The 15~20 optical sections acquired at 0.5~1 µm intervals were stacked and reconstructed using ZEN (black edition) software. Experiments were repeated at least twice for each compound. Final images were prepared using Adobe Photoshop CS3.
# KB-VIN cells [8] = assay: Cell cycle analysis by flow cytometry (PI staining); assay type: cell-based, human; conditions: 24 h, 1 × IC50 or 3 × IC50
# Description: KB-VIN cells were treated with compounds 3, 4, 6, 7, and 13 at their IC50 (1 × IC50) or three-fold IC50 (3 × IC50) concentration, and the cell cycle progression was analyzed by flow cytometer (Figure 2A).
# as §6
# KB-VIN cells were seeded in 12-well plates at a density of 1 × 10^5 per well and incubated overnight. […] The DNA contents of stained cells were analyzed by flow cytometer (LSRFortessa, BD Biosciences) controlled by FACSDiva software (BD Biosciences). Paclitaxel (PXL) was used at 3 or 6 µM. […] Experiments were repeated a minimum of two times.
# [9] = Homo sapiens, A549, KB, KB-VIN, range stated for the group of compounds, read-out: IC50 values ranging over A549, KB and KB-VIN cells
SMILES,"IC50 ([1]; positive controls, unit nM)",Tubulin Assay ICB: percent inhibition of [3H]colchicine binding [2],inhibition at 5 µM [2],IC50 [3],"IC50 ([4]; positive controls, unit nM)","IC50 (A549 (lung carcinoma); positive controls, unit nM)","IC50 ([5]; positive controls, unit nM)",IC50 [1],antiproliferative activity (in words) [6],IC50 [4],IC50 (A549 (lung carcinoma)),EC50 (bovine brain tubulin),IC50 [5],"fold rise in potency by a methoxy group at C-11 ([6]; 6 compared with 5, 9 compared with 8)","IC50 [6, 9]",microtubule / mitotic spindle morphology (KB-VIN cells [7]),effect on cell cycle progression (KB-VIN cells [8]),"IC50 ([6]; five human tumor cell lines, read-out: IC50 range over the cell lines tested)"
"COc1ccc(/C=C\c2cc(OC)c(OC)c(OC)c2)cc1O [CA-4, combretastatin A-4, reference compound]",487 ± 11 nM,totally inhibited,100 ± 0.4%,3.8 ± 0.1 nM,3.6 ± 0.1 nM,5.5 ± 0.1 nM,8.2 ± 0.5 nM,–,–,–,–,–,–,–,–,–,–,–
"CC[C@@]12CC(C(=O)OC)=C3Nc4ccccc4[C@@]34CCN(C[C@@H]3O[C@@H]31)[C@@H]24 [Compound 5, lochnericine]",–,–,0%,> 40000 nM,–,–,–,> 40000 nM,essentially inactive,> 40000 nM,> 40000 nM,> 40 µM,> 40000 nM,–,–,–,–,–
"CC[C@@]12CC(C(=O)OC)=C3Nc4cc(OC)ccc4[C@@]34CCN(C[C@@H]3O[C@@H]31)[C@@H]24 [Compound 6, 14,15-α-epoxy-11-methoxytabersonine]",–,–,54 ± 0.8%,500 nM,–,–,–,800 nM,exhibited antiproliferative activity against all cell lines; also recorded: significant antiproliferative effects against all five tumor cell lines,500 nM,500 nM,0.7 µM,800 nM,~ 60 fold,500 to 900 nM,dotted tubulin aggregations without spindles,accumulation of cells in the G2/M phase; also recorded: cell cycle arrest at G2/M,–
"CC[C@@]12CC(C(=O)OC)=C3Nc4cc(O)ccc4[C@@]34CCN(C[C@@H]3O[C@@H]31)[C@@H]24 [Compound 7, 11-hydroxylochnericine]",–,–,35 ± 1%,6100 ± 400 nM,–,–,–,10800 ± 800 nM,exhibited antiproliferative activity against all cell lines; also recorded: significant antiproliferative effects against all five tumor cell lines,5400 ± 300 nM,5600 ± 100 nM,4.6 ± 0.1 µM,9800 ± 900 nM,–,–,dotted tubulin aggregations without spindles,accumulation of cells in the G2/M phase; also recorded: cell cycle arrest at G2/M,–
"COC(=O)C1=C2Nc3cc(O)ccc3C23CCN2CC=CC(C(C)OC(C)=O)(C1)C23 [Compound 13, 19-(R)-acetoxy-11-hydroxytabersonine]",–,–,–,700 nM,–,–,–,6700 ± 100 nM,exhibited antiproliferative activity against all cell lines; also recorded: significant antiproliferative effects against all five tumor cell lines,700 nM,700 ± 100 nM,–,900 nM,–,500 to 900 nM,dotted tubulin aggregations without spindles,accumulation of cells in the G2/M phase; also recorded: cell cycle arrest at G2/M,600 to 6700 nM
